In ChEMBL document CHEMBL1131541, “New synthetic inhibitors of microtubule depolymerization” (1998) one finds Relative stability data, which are given here for 41 compounds.

The target in the experiment is Tubulin beta chain (Bos taurus) (UniProt Q6B856). The experiment is described as follows: Effect on microtubule stabilization isolated from bovine brain.
Sequence of Tubulin beta chain (Bos taurus) (Q6B856 whole entry): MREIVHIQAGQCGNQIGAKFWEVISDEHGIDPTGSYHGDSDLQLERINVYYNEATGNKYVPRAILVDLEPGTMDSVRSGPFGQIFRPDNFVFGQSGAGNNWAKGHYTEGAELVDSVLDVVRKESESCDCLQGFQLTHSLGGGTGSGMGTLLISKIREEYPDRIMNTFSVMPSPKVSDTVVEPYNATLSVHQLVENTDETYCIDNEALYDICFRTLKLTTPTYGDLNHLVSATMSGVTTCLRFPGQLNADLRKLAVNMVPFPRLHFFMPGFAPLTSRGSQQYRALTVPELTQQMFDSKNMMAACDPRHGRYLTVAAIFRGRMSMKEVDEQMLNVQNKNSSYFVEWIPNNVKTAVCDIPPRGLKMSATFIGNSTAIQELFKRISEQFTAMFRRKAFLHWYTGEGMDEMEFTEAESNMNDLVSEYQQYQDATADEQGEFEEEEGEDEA
Consider `C=C1C[C@@]23O[C@]2(c2ccccc21)C1CC(OC(=O)[C@H](O)[C@@H](NC(=O)OCC)c2cccs2)C3(C)C1(C)C` (stereo partly specified), for which the Relative stability stood at 215%.

As to `CCOC(=O)N[C@@H](c1ccccc1)[C@@H](O)C(=O)OC1CC2C(C)(C)C1(C)[C@@]13C[C@](O)(CO)c4ccccc4[C@@]21O3` (stereo partly specified), the Relative stability was 20%.

With `C=C1C[C@@]23O[C@]2(c2ccccc21)C1CC(OC(=O)[C@H](O)[C@@H](NC(=O)OC(C)(C)C)c2ccccc2)C3(C)C1(C)C` (stereo partly specified), the Relative stability came out at 27%.

`CCOC(=O)N[C@@H](c1ccsc1)[C@@H](O)C(=O)OC1CC2C(C)(C)C1(C)[C@@]13C[C@@H](C)c4ccccc4[C@@]21O3` (stereo partly specified): the Relative stability came to 58%.

As to `CCOC(=O)N[C@@H](c1ccccc1)[C@@H](O)C(=O)OC1CC2C(C)(C)C1(C)[C@@]13C[C@](O)(COC(C)=O)c4ccccc4[C@@]21O3` (stereo partly specified), the Relative stability was determined as 22%.

As for `CCOC(=O)N[C@@H](c1ccc(O)cc1)[C@@H](O)C(=O)OC1CC2C(C)(C)C1(C)[C@@]13C[C@H](C)c4ccccc4[C@@]21O3` (stereo partly specified), the Relative stability stood at 306%.

With `C[C@H]1C[C@@]23O[C@]2(c2ccccc21)C1CC(OC(=O)[C@H](O)[C@@H](NC(=O)NC(C)(C)C)c2ccccc2)C3(C)C1(C)C` (stereo partly specified), the Relative stability came to 153%.

For `C=C1C[C@@]23O[C@]2(c2ccccc21)C1CC(OC(=O)[C@H](O)[C@@H](NC(=O)OCC)c2ccc(O)cc2)C3(C)C1(C)C` (stereo partly specified), the Relative stability was found to be 130%.

`CCCCOC(=O)N[C@@H](c1ccncc1)[C@@H](O)C(=O)OC1CC2C(C)(C)C1(C)[C@@]13CC(C)c4ccccc4[C@@]21O3` (stereo partly specified): the Relative stability is -3%.

For the compound `COC(=O)N[C@@H](c1ccc(O)cc1)[C@@H](O)C(=O)OC1CC2C(C)(C)C1(C)[C@@]13CC(C)c4ccccc4[C@@]21O3` (stereo partly specified), the Relative stability is 293%.

For the compound `CCOC(=O)N[C@@H](c1ccncc1)[C@@H](O)C(=O)OC1CC2C(C)(C)C1(C)[C@@]13C[C@](O)(CO)c4ccccc4[C@@]21O3` (stereo partly specified), the Relative stability came out at 327%.

Take `CCOC(=O)N[C@@H](c1cccs1)[C@@H](O)C(=O)OC1CC2C(C)(C)C1(C)[C@@]13C[C@H](C)c4ccccc4[C@@]21O3` (stereo partly specified): the Relative stability was found to be 311%.

As to `CCOC(=O)N[C@@H](c1ccc(Cl)cc1)[C@@H](O)C(=O)OC1CC2C(C)(C)C1(C)[C@@]13C[C@H](C)c4ccccc4[C@@]21O3` (stereo partly specified), the Relative stability worked out at 193%.

For `C[C@H]1C[C@@]23O[C@]2(c2ccccc21)C1CC(OC(=O)[C@H](O)[C@@H](NC(=O)CCC2CCCC2)c2ccccc2)C3(C)C1(C)C` (stereo partly specified), the Relative stability came out at 86%.

With `COC(=O)N[C@@H](c1ccncc1)[C@@H](O)C(=O)OC1CC2C(C)(C)C1(C)[C@@]13C[C@]4(CO4)c4ccccc4[C@@]21O3` (stereo partly specified), the Relative stability came out at 423%.

Turning to `C=C1C[C@@]23O[C@]2(c2ccccc21)C1CC(OC(=O)[C@H](O)[C@@H](NC(C)=O)c2ccccc2)C3(C)C1(C)C` (stereo partly specified), the Relative stability worked out at 89%.

Take `CCCC(=O)N[C@@H](c1ccncc1)[C@@H](O)C(=O)OC1CC2C(C)(C)C1(C)[C@@]13CC(C)c4ccccc4[C@@]21O3` (stereo partly specified): the Relative stability was 862%.

For `CCOC(=O)N[C@@H](c1ccoc1)[C@@H](O)C(=O)OC1CC2C(C)(C)C1(C)[C@@]13C[C@H](C)c4ccccc4[C@@]21O3` (stereo partly specified), the Relative stability is 190%.

As to `CCCC(=O)N[C@@H](c1ccsc1)[C@@H](O)C(=O)OC1CC2C(C)(C)C1(C)[C@@]13CC(C)c4ccccc4[C@@]21O3` (stereo partly specified), the Relative stability is 91%.

Consider `CCCCOC(=O)N[C@@H](c1ccc(O)cc1)[C@@H](O)C(=O)OC1CC2C(C)(C)C1(C)[C@@]13CC(C)c4ccccc4[C@@]21O3` (stereo partly specified), for which the Relative stability amounted to 80%.

As for `CCOC(=O)N[C@@H](c1ccsc1)[C@@H](O)C(=O)OC1CC2C(C)(C)C1(C)[C@@]13C[C@H](C)c4ccccc4[C@@]21O3` (stereo partly specified), the Relative stability was 788%.

Consider `CCOC(=O)N[C@@H](c1ccc(C)cc1)[C@@H](O)C(=O)OC1CC2C(C)(C)C1(C)[C@@]13C[C@H](C)c4ccccc4[C@@]21O3` (stereo partly specified), for which the Relative stability turned out to be 152%.

For `CCOC(=O)N[C@@H](c1ccncc1)[C@@H](O)C(=O)OC1CC2C(C)(C)C1(C)[C@@]13C[C@H](C)c4ccccc4[C@@]21O3` (stereo partly specified), the Relative stability was determined as 1300%.

For the compound `CCOC(=O)N[C@@H](c1cccc(F)c1)[C@@H](O)C(=O)OC1CC2C(C)(C)C1(C)[C@@]13C[C@H](C)c4ccccc4[C@@]21O3` (stereo partly specified), the Relative stability came to 139%.

For `CCCCNC(=O)N[C@@H](c1ccccc1)[C@@H](O)C(=O)OC1CC2C(C)(C)C1(C)[C@@]13C[C@H](C)c4ccccc4[C@@]21O3` (stereo partly specified), the Relative stability was found to be 130%.

Take `C=C1C[C@@]23O[C@]2(c2ccccc21)C1CC(OC(=O)[C@H](O)[C@@H](NC(=O)OCCCC)c2ccccc2)C3(C)C1(C)C` (stereo partly specified): the Relative stability was found to be 83%.

As for `C=C1C[C@@]23O[C@]2(c2ccccc21)C1CC(OC(=O)[C@H](O)[C@@H](NC(=O)CCC)c2ccccc2)C3(C)C1(C)C` (stereo partly specified), the Relative stability stood at 114%.

Take `COC(=O)N[C@@H](c1ccncc1)[C@@H](O)C(=O)OC1CC2C(C)(C)C1(C)[C@@]13C[C@](O)(COC(C)=O)c4ccccc4[C@@]21O3` (stereo partly specified): the Relative stability is 116%.

For `C=C1C[C@@]23O[C@]2(c2ccccc21)C1CC(OC(=O)[C@H](O)[C@@H](NC(=O)OCC)c2ccoc2)C3(C)C1(C)C` (stereo partly specified), the Relative stability came to 119%.

For the compound `C=C1C[C@@]23O[C@]2(c2ccccc21)C1CC(OC(=O)[C@H](O)[C@@H](NC(=O)OCC)c2ccsc2)C3(C)C1(C)C` (stereo partly specified), the Relative stability worked out at 788%.

Turning to `COC(=O)N[C@@H](c1ccsc1)[C@@H](O)C(=O)OC1CC2C(C)(C)C1(C)[C@@]13CC(C)c4ccccc4[C@@]21O3` (stereo partly specified), the Relative stability stood at 316%.

Regarding `CC(C)NC(=O)N[C@@H](c1ccsc1)[C@@H](O)C(=O)OC1CC2C(C)(C)C1(C)[C@@]13CC(C)c4ccccc4[C@@]21O3` (stereo partly specified), the Relative stability was 56%.

As for `C=C1C[C@@]23O[C@]2(c2ccccc21)C1CC(OC(=O)[C@H](O)[C@@H](NC(=O)NC(C)C)c2ccccc2)C3(C)C1(C)C` (stereo partly specified), the Relative stability was found to be 103%.

As for `CCCC(=O)N[C@@H](c1ccccc1)[C@@H](O)C(=O)OC1CC2C(C)(C)C1(C)[C@@]13C[C@H](C)c4ccccc4[C@@]21O3` (stereo partly specified), the Relative stability was found to be 168%.

As for `CCOC(=O)N[C@@H](c1ccncc1)[C@@H](O)C(=O)OC1CC2C(C)(C)C1(C)[C@@]13C[C@@H](C)c4ccccc4[C@@]21O3` (stereo partly specified), the Relative stability was found to be 227%.

Regarding `C=C1C[C@@]23O[C@]2(c2ccccc21)C1CC(OC(=O)[C@H](O)[C@@H](NC(=O)OCC)c2ccc(OC)cc2)C3(C)C1(C)C` (stereo partly specified), the Relative stability stood at 95%.

On to `C=C1C[C@@]23O[C@]2(c2ccccc21)C1CC(OC(=O)[C@H](O)[C@@H](NC(=O)OCC)c2ccc(F)cc2)C3(C)C1(C)C` (stereo partly specified), for which the Relative stability was 152%.

For the compound `COC(=O)N[C@@H](c1ccccc1)[C@@H](O)C(=O)OC1CC2C(C)(C)C1(C)[C@@]13C[C@H](C)c4ccccc4[C@@]21O3` (stereo partly specified), the Relative stability amounted to 244%.

Consider `C=C1C[C@@]23O[C@]2(c2ccccc21)C1CC(OC(=O)[C@H](O)[C@@H](NC(=O)OC)c2ccccc2)C3(C)C1(C)C` (stereo partly specified), for which the Relative stability turned out to be 164%.

Turning to `CC(C)NC(=O)N[C@@H](c1ccccc1)[C@@H](O)C(=O)OC1CC2C(C)(C)C1(C)[C@@]13C[C@H](C)c4ccccc4[C@@]21O3` (stereo partly specified), the Relative stability turned out to be 150%.

For `CCOC(=O)N[C@@H](c1ccccc1)[C@@H](O)C(=O)OC1CC2C(C)(C)C1(C)[C@@]13C[C@H](C)c4ccccc4[C@@]21O3` (stereo partly specified), the Relative stability was 209%.
